Results published in ChEMBL document CHEMBL5038598, “Design and Synthesis of Pyrrolo[2,3-d]pyrimidine-Derived Leucine-Rich Repeat Kinase 2 (LRRK2) Inhibitors Using a Checkpoint Kinase 1 (CHK1)-Derived Crystallographic Surrogate” (J Med Chem, 2021).
pIC50, pKd: −log10 of the molar value. Activity calls are given as the source filed them. The calls are words filed in the database; no cut-off is given here.

Key:
[1] = system: P-glycoprotein (human); assay: Efflux ratio of permeability across basolateral to apical side over apical to basolateral side in MDCK-MDR1 cells expressing human P-glycoprotein; settings: dog
[2] = target: T1, Leucine-rich repeat serine/threonine-protein kinase 2 (Homo sapiens, UniProt Q5S007, G2019S); assay: Inhibition of LRRK2-pSer935 in LRRK2 G2019S mutant expressing human HEK293 cells and measured after 48 hrs by ICW assay; format: cell-based
[3] = target: T2, Adenosine receptor A2b (Homo sapiens) (UniProt P29275); assay: Binding affinity to human Adenosine receptor A2b at 1 uM by radioligand binding assay relative to control
T2 sequence (whole entry): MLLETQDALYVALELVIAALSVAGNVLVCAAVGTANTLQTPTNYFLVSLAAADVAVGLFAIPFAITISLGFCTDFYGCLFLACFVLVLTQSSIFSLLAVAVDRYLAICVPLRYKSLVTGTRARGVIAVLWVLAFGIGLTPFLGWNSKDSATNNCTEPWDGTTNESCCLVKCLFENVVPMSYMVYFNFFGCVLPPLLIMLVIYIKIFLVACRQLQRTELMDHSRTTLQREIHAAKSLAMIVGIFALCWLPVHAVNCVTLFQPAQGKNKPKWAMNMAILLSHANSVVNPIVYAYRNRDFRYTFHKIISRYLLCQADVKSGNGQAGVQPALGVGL

[4] = target: T1, Leucine-rich repeat serine/threonine-protein kinase 2; assay: Binding affinity to human LRRK2 (H970/E2527) G2019S mutant expressed in mammalian system assessed as dissociation constant measured at 1 uM by DiscoveRx KINOMEscan assay
[5] = target: T3, Leucine-rich repeat serine/threonine-protein kinase 2 (Mus musculus, UniProt Q5S006); assay: Inhibition of LRRK2-WT in C57BL/6 mouse brain at 10 to 150 mg/kg and measured after 1 hrs by western blotting; format: organism-based
[6] = Half life in steady state in Beagle dog plasma at 1 mg/kg, IV […]; format: ADME, organism-based, Canis lupus familiaris
[7] = Mutagenecity in Salmonella enterica subsp. enterica serovar Typhimurium by Ames test; format: toxicity
[8] = target: T4, Phosphatidylinositol 4-kinase beta (Homo sapiens, UniProt Q9UBF8); assay: Inhibition of human PIK4CB (M1/M828) WT expressed in mammalian system assessed as remaining activity measured at 1 uM by DiscoveRx KINOMEscan assay relative to control
[9] = Oral bioavailability in Sprague-Dawley rat plasma at 2 mg/kg relative to liver blood flow; format: ADME, organism-based
[10] = Half life in Sprague-Dawley rat plasma at 1 mg/kg, IV […]; format: ADME, organism-based
[11] = target: T5, Leucine-rich repeat serine/threonine-protein kinase 2 (Homo sapiens, UniProt Q5S007); assay: Inhibition of LRRK2 WT expressed in human PBMCs measured by KiNativ profiling analysis
[12] = Drug uptake in Mdr1a/ 1b-BCRP knockout C57BL/6 mouse brain at 5 mg/kg, sc and measured after 0.5 hrs; format: ADME, organism-based; settings: read-out: Drug uptake
[13] = system: P-glycoprotein (human); assay: Apparent permeability in MDCK-MDR1 cells expressing human P-glycoprotein; format: ADME, cell-based, Canis lupus familiaris; settings: dog
[14] = target: Receptor-type tyrosine-protein kinase FLT3 (Homo sapiens) (UniProt P36888); assay: Inhibition of human FLT3 WT expressed in bacterial system assessed as remaining activity measured at 1 uM by DiscoveRx KINOMEscan assay
[15] = Ratio of unbound drug level in Md1a/1b BCRP knockout C57BL/6 mouse brain to plasma at 5 mg/kg, sc and measured after 0.5 hrs; format: ADME, organism-based; settings: in vivo
[16] = target: Mitogen-activated protein kinase kinase kinase 1 (Homo sapiens, UniProt Q13233); assay: Inhibition of MAP3K1 expressed in human PBMCs measured by KiNativ profiling analysis
[17] = species on record: Homo sapiens; assay: Inhibition of human PIP5K2C (M1/A421) WT expressed in mammalian system assessed as remaining activity measured at 1 uM by DiscoveRx KINOMEscan assay relative to control
[18] = target: T4, Phosphatidylinositol 4-kinase beta; assay: Binding affinity to human PIK4CB (M1/M828) WT expressed in mammalian system assessed as dissociation constant measured at 1 uM by DiscoveRx KINOMEscan assay
[19] = target: T4, Phosphatidylinositol 4-kinase beta; assay: Inhibition of PI4KB expressed in human PBMCs measured at 10 uM by KiNativ profiling analysis relative to control
[20] = target: T5, Leucine-rich repeat serine/threonine-protein kinase 2; assay: Inhibition of LRRK2-pSer935 in LRRK2 WT expressing human HEK293 cells and measured after 48 hrs by ICW assay; format: cell-based
[21] = target: Receptor-type tyrosine-protein kinase FLT3 (Homo sapiens, UniProt P36888, D835V/ITD); assay: Binding affinity to human FLT3 ITD, D835V (V592/Y969) mutant expressed in mammalian system assessed as dissociation constant measured at 1 uM by DiscoveRx KINOMEscan assay
[22] = target: T5, Leucine-rich repeat serine/threonine-protein kinase 2; assay: Binding affinity to human LRRK2 WT expressed in mammalian system assessed as dissociation constant measured at 1 uM by DiscoveRx KINOMEscan assay
[23] = target: T1, Leucine-rich repeat serine/threonine-protein kinase 2; assay: Inhibition of recombinant human GST tagged truncated LRRK2 G2019S mutant using fluorescein-labeled LRRKtide as substrate in presence of ATP preincubated for 50 mins followed by anti-phospho-LRRKtide antibody addition and measured after 30 mins by TR-FRET based Lanthascreen kinase activity assay
[24] = Volume of distribution in steady state in Sprague-Dawley rat plasma at 1 mg/kg, IV […]; format: ADME, organism-based; settings: read-out: Vdss
[25] = Clearance in Sprague dawley rat plasma at 1 mg/kg, IV relative to liver blood flow; format: ADME, organism-based
[26] = Oral bioavailability in Beagle dog plasma at 2 mg/kg relative to liver blood flow; format: ADME, organism-based, Canis lupus familiaris
[27] = target: T3, Leucine-rich repeat serine/threonine-protein kinase 2; assay: Inhibition of LRRK2-WT-pSER935 in C57BL/6 mouse brain at 10 to 150 mg/kg and measured after 1 hrs by western blotting; format: organism-based
[28] = system: BCRP (human); assay: Apparent permeability in MDCK cells expressing human BCRP; format: ADME, cell-based, Canis lupus familiaris; settings: dog
[29] = Binding affinity to human PIP5K2C (M1/A421) WT expressed in mammalian system assessed as dissociation constant measured at 1 uM by DiscoveRx KINOMEscan assay
[30] = Ratio of drug level in Md1a/1b C57BL/6 mouse brain to plasma at 5 mg/kg, sc and measured after 0.5 hrs; format: ADME, organism-based
[31] = Drug uptake in Mdr1a/ 1b-BCRP knockout C57BL/6 mouse plasma at 5 mg/kg, sc and measured after 0.5 hrs; format: ADME, organism-based
[32] = system: Receptor-type tyrosine-protein kinase FLT3 (Homo sapiens), P36888 [UNDEFINED MUTATION]; assay: Inhibition of human FLT3 ITD, D835V (V592/Y969) mutant expressed in bacterial system assessed as remaining activity measured at 1 uM by DiscoveRx KINOMEscan assay relative to control; values are per cent of control
[33] = Clearance in Beagle dog plasma at 1 mg/kg, IV relative to liver blood flow; format: ADME, organism-based, Canis lupus familiaris
[34] = Ratio of unbound drug level in C57BL/6 WT mouse brain to plasma at 5 mg/kg, sc and measured after 0.5 hrs; format: ADME, organism-based; settings: C57BL/6, mouse

T5 sequence (Q5S007 whole entry): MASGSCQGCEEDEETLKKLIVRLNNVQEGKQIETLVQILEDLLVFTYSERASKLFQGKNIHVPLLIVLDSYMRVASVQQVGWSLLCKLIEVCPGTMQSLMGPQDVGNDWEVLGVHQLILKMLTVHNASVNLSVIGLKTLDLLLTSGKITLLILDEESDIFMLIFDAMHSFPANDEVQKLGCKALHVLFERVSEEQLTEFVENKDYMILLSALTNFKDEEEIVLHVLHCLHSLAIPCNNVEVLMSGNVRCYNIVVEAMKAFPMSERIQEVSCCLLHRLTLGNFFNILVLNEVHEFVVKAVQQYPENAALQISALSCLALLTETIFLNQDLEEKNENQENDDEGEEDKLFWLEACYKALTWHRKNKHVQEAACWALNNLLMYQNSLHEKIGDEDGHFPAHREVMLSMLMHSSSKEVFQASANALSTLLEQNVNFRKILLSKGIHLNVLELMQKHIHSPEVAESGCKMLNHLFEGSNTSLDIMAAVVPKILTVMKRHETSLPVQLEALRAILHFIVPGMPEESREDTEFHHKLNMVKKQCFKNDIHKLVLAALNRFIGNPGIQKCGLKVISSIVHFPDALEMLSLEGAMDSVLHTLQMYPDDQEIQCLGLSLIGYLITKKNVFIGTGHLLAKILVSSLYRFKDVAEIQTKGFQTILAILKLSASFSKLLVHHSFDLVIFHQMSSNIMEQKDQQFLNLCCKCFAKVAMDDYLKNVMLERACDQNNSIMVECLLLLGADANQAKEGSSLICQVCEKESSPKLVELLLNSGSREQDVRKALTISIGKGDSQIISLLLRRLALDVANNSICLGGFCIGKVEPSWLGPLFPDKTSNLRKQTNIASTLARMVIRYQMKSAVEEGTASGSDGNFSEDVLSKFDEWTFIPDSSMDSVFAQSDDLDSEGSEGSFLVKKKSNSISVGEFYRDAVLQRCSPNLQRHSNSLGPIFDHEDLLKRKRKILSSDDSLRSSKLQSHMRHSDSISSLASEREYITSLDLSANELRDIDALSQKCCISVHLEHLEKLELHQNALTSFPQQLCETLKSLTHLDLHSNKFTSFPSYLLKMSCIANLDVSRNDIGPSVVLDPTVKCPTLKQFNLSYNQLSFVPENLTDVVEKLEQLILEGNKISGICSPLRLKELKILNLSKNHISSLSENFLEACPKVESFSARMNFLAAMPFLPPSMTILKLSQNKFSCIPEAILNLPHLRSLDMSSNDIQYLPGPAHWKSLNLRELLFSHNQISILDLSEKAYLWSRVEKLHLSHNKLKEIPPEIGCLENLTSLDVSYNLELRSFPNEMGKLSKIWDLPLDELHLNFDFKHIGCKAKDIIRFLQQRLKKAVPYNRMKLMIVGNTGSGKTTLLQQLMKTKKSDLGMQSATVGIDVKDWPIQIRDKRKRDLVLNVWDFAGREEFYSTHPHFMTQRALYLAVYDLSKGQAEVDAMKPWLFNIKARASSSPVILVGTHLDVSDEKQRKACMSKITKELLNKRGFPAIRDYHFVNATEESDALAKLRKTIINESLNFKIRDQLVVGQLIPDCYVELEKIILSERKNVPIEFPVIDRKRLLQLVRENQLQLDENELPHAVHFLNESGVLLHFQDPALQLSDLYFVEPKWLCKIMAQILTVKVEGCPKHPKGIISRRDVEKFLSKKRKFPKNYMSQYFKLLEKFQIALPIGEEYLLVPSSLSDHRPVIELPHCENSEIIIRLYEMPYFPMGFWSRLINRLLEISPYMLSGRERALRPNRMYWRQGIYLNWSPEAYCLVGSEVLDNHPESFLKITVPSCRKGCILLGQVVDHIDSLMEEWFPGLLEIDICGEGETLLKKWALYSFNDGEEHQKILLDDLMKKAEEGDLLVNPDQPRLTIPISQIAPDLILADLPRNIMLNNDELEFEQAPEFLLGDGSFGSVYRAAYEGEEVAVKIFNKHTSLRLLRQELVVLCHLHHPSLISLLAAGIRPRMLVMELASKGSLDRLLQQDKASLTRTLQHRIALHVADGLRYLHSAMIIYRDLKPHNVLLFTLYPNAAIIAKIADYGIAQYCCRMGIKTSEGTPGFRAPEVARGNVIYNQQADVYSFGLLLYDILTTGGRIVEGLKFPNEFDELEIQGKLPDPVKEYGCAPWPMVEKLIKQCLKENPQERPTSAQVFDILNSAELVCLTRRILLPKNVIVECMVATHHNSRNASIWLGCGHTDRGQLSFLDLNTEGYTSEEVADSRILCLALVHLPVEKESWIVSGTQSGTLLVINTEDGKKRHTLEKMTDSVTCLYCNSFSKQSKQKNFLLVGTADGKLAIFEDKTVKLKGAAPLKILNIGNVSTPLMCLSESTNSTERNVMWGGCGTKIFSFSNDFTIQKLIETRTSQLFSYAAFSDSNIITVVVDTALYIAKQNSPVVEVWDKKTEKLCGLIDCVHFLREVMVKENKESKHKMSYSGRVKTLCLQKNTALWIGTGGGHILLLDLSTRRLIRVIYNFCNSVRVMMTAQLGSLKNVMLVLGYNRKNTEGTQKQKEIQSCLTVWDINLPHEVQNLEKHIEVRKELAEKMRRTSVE
T3 sequence (Q5S006 whole entry): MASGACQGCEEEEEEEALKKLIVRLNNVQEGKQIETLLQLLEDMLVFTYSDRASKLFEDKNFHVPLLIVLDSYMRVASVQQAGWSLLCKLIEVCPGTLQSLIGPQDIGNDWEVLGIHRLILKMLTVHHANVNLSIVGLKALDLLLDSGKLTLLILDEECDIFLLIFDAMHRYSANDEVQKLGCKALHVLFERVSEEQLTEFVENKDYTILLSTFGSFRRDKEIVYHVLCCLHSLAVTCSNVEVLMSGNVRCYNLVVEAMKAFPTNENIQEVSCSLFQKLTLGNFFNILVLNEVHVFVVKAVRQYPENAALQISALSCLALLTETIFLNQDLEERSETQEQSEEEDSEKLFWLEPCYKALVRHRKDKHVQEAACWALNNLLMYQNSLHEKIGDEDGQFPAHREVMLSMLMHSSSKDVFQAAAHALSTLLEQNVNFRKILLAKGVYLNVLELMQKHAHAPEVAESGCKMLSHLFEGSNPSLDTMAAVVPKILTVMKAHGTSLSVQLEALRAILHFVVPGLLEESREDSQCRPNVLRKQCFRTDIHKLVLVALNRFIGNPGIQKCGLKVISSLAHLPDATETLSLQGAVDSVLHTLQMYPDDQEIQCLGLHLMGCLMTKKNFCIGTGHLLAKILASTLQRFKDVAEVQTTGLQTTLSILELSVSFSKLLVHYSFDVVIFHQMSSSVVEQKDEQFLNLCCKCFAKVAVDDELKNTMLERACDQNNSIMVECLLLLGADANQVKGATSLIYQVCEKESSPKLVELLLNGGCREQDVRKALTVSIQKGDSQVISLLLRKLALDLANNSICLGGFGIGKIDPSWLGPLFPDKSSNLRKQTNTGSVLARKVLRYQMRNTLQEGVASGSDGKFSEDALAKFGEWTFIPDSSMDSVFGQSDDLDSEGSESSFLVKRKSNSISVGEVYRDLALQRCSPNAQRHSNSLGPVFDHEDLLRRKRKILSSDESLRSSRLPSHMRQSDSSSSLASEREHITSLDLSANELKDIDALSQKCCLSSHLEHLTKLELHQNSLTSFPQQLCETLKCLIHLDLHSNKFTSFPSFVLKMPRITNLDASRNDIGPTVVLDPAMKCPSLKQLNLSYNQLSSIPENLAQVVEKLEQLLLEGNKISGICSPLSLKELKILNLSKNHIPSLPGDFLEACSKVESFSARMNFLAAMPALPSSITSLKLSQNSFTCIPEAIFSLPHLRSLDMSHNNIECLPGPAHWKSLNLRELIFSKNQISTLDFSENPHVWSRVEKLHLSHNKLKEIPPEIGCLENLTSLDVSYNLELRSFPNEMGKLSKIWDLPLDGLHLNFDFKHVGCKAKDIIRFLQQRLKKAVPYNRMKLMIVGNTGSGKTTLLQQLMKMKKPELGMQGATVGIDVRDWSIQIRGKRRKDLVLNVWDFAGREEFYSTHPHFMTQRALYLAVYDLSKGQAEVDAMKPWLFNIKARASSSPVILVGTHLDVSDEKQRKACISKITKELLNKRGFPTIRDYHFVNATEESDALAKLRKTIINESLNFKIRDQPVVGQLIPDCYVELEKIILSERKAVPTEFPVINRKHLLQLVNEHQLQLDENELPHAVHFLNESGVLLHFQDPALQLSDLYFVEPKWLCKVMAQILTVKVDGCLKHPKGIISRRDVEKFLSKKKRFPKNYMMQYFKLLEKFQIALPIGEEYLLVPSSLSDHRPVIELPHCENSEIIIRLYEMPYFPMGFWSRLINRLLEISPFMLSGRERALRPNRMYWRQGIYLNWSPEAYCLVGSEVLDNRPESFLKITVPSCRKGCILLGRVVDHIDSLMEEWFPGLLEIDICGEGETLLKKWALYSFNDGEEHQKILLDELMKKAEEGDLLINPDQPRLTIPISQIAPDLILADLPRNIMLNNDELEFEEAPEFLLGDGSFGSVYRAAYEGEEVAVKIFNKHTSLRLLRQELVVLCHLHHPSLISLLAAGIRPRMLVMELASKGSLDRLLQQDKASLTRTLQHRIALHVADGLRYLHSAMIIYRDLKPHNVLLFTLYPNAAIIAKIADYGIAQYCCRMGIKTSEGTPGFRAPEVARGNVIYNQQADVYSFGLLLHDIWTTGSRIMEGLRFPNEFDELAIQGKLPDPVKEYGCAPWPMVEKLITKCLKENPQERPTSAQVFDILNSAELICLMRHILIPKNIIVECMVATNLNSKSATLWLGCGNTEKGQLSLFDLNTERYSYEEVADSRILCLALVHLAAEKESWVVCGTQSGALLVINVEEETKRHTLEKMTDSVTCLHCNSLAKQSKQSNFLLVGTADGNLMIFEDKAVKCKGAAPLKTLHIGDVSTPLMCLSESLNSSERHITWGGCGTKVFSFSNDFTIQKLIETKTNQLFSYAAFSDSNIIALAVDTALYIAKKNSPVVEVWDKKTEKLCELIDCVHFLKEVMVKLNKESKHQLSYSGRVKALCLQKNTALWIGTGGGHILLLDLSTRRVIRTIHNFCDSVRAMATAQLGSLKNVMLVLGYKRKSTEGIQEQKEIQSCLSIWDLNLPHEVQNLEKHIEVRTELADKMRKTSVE
T1 sequence (Q5S007 whole entry G2019S): as the sequence (Q5S007 whole entry) above, with G2019S counted along it

Row | Structure (SMILES) | efflux ratio [1] | pIC50 [2] | inhibition [3] [%] | pKd [4] | pIC50 [5] | half-life [6] [min] | Activity [7] | Activity [8] [%] | bioavailability [9] [%] | half-life [10] [min] | pIC50 [11] | concentration at 0.5 h [12] [ng/g] | Papp [13] [×10⁻⁶ cm/s] | inhibition [14] | Ratio [15] | pIC50 [16] | Activity [17] [%] | pKd [18] | inhibition [19] [%] | pIC50 [20] | other results
1 | Cc1c(Nc2nc(N)c3c(C#N)c(N4CCC[C@H]4C)n(C)c3n2)cnn1[C@@H]1CCOC1 | 1.2 | 7.10 | 18 | 8.41 | 7.96 | 30 | Non-Toxic | < 37 | 5 | 6 | 7.17 | 2060 | 4.6 | inactive | 0.37 | 5.96 | < 37 | 6.07 | 45 | 6.74 | pKd [21]: 6.33; pKd [22]: 8.43; pIC50 [23]: 7.92; Vd [24]: 1.7 L/kg; clearance [25]: 158 mL/min/kg; bioavailability [26]: 25%; pIC50 [27]: 7.80; Papp [28]: 0.7 ×10⁻⁶ cm/s; pKd [29]: 6.72; Kp at 0.5 h [30]: 1.05; concentration at 0.5 h [31]: 1960 ng/mL; residual activity [32]: 25%; clearance [33]: 36.7 mL/min/kg; Kp uu at 0.5 h [34]: 0.02
2 | Cc1c(Nc2nc(N)c3c(C#N)c(N4CCC[C@H]4C)n(C)c3n2)cnn1[C@H]1CCOC1 | 0.9 | 7.29 | 26 | 8.26 | 7.66 | 36 | Non-Toxic | < 37 | < 1 | 12 | 7.07 | 1080 | 4.3 | inactive | 0.24 | 6.08 | < 37 | 6.14 | 29 | 6.85 | pKd [21]: 7.17; pKd [22]: 8.18; pIC50 [23]: 7.85; Vd [24]: 1.1 L/kg; clearance [25]: 76.7 mL/min/kg; bioavailability [26]: 96%; pIC50 [27]: 7.64; Papp [28]: 1.2 ×10⁻⁶ cm/s; pKd [29]: 6.37; Kp at 0.5 h [30]: 0.65; concentration at 0.5 h [31]: 1600 ng/mL; residual activity [32]: 1.9%; clearance [33]: 53.3 mL/min/kg; Kp uu at 0.5 h [34]: 0.02
